For this test, the target named is T1, Human TRPA1 expressing CHO cells (Homo sapiens, UniProt O75762).
T1 construct: expressed in transfected cells; host or cells: CHO cells (under G-418 selection)
In words: 45Calcium uptake assay: inhibition of AITC induced cellular uptake of radioactive calcium. Format: cell-based. Conditions: AITC 30 μM, human TRPA1 CHO cells; for inhibition at 1 µM: 1.0 μM test compound, read-out: Percentage inhibition at 1.0 μM; for inhibition at 10 µM: 10.0 μM test compound, read-out: Percentage inhibition at 10.0 μM; for IC50: read-out: IC50 value (range). As for the experimental part:
The illustrative examples of the present invention are screened for TRPA1 activity according to a modified procedure described in (a) Tóth, A. et al. Life Sciences (2003), 73, 487-498. ([…]. et al. Proc. Natl. Acad. Sci. U.S.A., (2007), 104, 13525-13530. The screening of the compounds can be carried out by other methods and procedures known to persons skilled in the art. Screening for TRPA1 Antagonist Using the ^45Calcium Uptake Assay The inhibition of TRPA1 receptor activation was measured as inhibition of allyl isothiocyanate (AITC) induced cellular uptake of radioactive calcium. […] Final concentration of DMSO in the reaction was 0.5% (v/v). […] Cells were seeded 24 h prior to the assay in 96 well plates so as to get 50,000 cells per well on the day of experiment. Cells were treated with test compounds for 10 min followed by addition of AITC at a final concentration of 30 μM and 5 μCi/ml ^45Ca^+2 for 3 min. […] Radioactivity in the lysate was measured in Packard Top count after addition of liquid scintillant. Concentration response curves were plotted as a % of maximal response obtained in the absence of test antagonist. IC50 value was calculated from concentration response curve by nonlinear regression analysis using GraphPad PRISM software.

The record followed here is patent US7951814B2, “Quinazolinedione derivatives as TRPA1 modulators” (Glenmark Pharmaceuticals, S.A., priority 2008, dated 2011).

T1 sequence (O75762 whole entry): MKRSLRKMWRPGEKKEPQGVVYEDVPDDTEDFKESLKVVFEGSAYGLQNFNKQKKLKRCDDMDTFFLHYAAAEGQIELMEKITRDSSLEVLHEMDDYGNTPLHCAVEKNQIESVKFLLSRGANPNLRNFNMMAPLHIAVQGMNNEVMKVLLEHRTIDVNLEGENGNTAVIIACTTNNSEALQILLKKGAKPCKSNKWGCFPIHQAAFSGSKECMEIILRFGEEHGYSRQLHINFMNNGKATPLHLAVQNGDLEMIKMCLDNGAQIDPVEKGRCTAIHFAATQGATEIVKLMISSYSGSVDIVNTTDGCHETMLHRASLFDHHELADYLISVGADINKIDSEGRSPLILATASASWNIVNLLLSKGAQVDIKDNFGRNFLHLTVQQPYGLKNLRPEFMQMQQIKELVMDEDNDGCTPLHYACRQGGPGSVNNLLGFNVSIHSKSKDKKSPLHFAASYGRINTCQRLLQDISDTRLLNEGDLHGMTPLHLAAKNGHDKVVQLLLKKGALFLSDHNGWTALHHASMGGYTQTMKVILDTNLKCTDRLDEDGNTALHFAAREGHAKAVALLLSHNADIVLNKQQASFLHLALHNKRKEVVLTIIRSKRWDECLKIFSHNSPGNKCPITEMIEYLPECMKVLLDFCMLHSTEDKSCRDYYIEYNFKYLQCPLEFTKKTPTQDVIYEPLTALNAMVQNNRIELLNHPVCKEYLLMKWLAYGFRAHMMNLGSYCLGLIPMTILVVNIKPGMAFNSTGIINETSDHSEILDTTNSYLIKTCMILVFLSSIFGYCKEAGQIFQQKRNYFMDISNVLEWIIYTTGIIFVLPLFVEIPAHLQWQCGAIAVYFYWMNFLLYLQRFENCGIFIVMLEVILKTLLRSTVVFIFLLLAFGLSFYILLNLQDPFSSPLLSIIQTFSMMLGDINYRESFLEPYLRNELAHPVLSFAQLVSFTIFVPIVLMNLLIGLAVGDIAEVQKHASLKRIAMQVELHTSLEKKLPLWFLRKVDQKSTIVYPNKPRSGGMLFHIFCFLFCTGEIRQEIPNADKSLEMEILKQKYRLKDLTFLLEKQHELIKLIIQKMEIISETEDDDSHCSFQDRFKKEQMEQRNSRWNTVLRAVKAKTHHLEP

On to `O=C(Cc1cccc2[nH]c(=O)[nH]c(=O)c12)Nc1nc(-c2ccc(Cl)cc2)cs1` [Example 29, N1-[4-(4-Chlorophenyl)-1,3-thiazol-2-yl]-2-(2,4-dioxo-1,2,3,4-tetrahydro-5-quinazolinyl)acetamide], for which the inhibition (commonly the share of the control response that was lost under treatment) at 1 µM worked out at 20.9% and the inhibition at 10 µM is 47.7%.

Take `Cc1sc(NC(=O)Cc2cccc3c2c(=O)n(C)c(=O)n3C)nc1-c1ccc(Cl)cc1` [Example 30, N1-[4-(4-Chlorophenyl)-5-methyl-1,3-thiazolyl]-2-(1,3-dimethyl-2,4-dioxo-1,2,3,4-tetrahydro-5-quinazolinyl)acetamide]: the inhibition at 1 µM is 37.3% and the inhibition at 10 µM came out at 91%.

With `Cn1c(=O)c2c(CC(=O)Nc3nc(-c4ccc(F)cc4F)cs3)cccc2n(C)c1=O` [Example 31, N1-[4-(2,4-Difluorophenyl)-1,3-thiazol-2-yl]-2-(1,3-dimethyl-2,4-dioxo-1,2,3,4-tetrahydro-5-quinazolinyl)acetamide], the inhibition at 1 µM amounted to 90.1%, the inhibition at 10 µM worked out at 97.9% and the IC50 (commonly the point on the concentration scale where inhibition reaches its midpoint) is less than 50 nM.

For `Cn1c(=O)c2c(CC(=O)Nc3nc(-c4ccc(F)c(F)c4)cs3)cccc2n(C)c1=O` [Example 32, N1-[4-(3,4-Difluorophenyl)-1,3-thiazol-2-yl]-2-(1,3-dimethyl-2,4-dioxo-1,2,3,4-tetrahydro-5-quinazolinyl)acetamide], the inhibition at 1 µM was 53.7% and the inhibition at 10 µM was 66.3%.

On to `Cn1c(=O)c2c(CC(=O)Nc3nc(-c4c(F)cccc4F)cs3)cccc2n(C)c1=O` [Example 33, N1-[4-(2,6-Difluorophenyl)-1,3-thiazol-2-yl]-2-(1,3-dimethyl-2,4-dioxo-1,2,3,4-tetrahydro-5-quinazolinyl)acetamide], for which the inhibition at 1 µM stood at 50.4% and the inhibition at 10 µM stood at 79.8%.

Consider `Cn1c(=O)c2c(CC(=O)Nc3nc(-c4cc(F)cc(F)c4)cs3)cccc2n(C)c1=O` [Example 34, N1-[4-(3,5-Difluorophenyl)-1,3-thiazol-2-yl]-2-(1,3-dimethyl-2,4-dioxo-1,2,3,4-tetrahydro-5-quinazolinyl)acetamide], for which the inhibition at 1 µM was found to be 15.8% and the inhibition at 10 µM is 85%.

As for `Cn1c(=O)c2c(CC(=O)Nc3nc(-c4cccc(F)c4F)cs3)cccc2n(C)c1=O` [Example 35, N1-[4-(2,3-Difluorophenyl)-1,3-thiazol-2-yl]-2-(1,3-dimethyl-2,4-dioxo-1,2,3,4-tetrahydro-5-quinazolinyl)acetamide], the inhibition at 1 µM is 76.8%, the inhibition at 10 µM is 95.8% and the IC50 was 50.1 to 100 nM.

As to `Cn1c(=O)c2c(CC(=O)Nc3nc(-c4ccc(C(F)(F)F)cc4F)cs3)cccc2n(C)c1=O` [Example 36, N1-[4-(2-Fluoro-4-trifluoromethylphenyl)-1,3-thiazol-2-yl]-2-(1,3-dimethyl-2,4-1,2,3,4-tetrahydro-5-quinazolinyl)acetamide], the inhibition at 1 µM is 95.1%, the inhibition at 10 µM came out at 100% and the IC50 is less than 50 nM.

Take `Cn1c(=O)c2c(CC(=O)Nc3nc(-c4ccc(F)c(C(F)(F)F)c4)cs3)cccc2n(C)c1=O` [Example 38, N1-[4-(4-Fluoro-3-trifluoromethylphenyl)-1,3-thiazol-2-yl]-2-(1,3-dimethyl-2,4-dioxo-1,2,3,4-tetrahydro-5-quinazolinyl)acetamide]: the inhibition at 1 µM was 98.5%, the inhibition at 10 µM was found to be 98.7% and the IC50 was less than 50 nM.

On to `Cn1c(=O)c2c(CC(=O)Nc3nc(-c4ccc(F)cc4C(F)(F)F)cs3)cccc2n(C)c1=O` [Example 39, N1-[4-(4-Fluoro-2-trifluoromethylphenyl)-1,3-thiazol-2-yl]-2-(1,3-dimethyl-2,4-dioxo-1,2,3,4-tetrahydro-5-quinazolinyl)acetamide], for which the inhibition at 1 µM was determined as 51.6% and the inhibition at 10 µM was 90.3%.

On to `Cn1c(=O)c2c(CC(=O)Nc3nc(-c4cc(C(F)(F)F)ccc4F)cs3)cccc2n(C)c1=O` [Example 40, N1-[4-(2-Fluoro-5-trifluoromethylphenyl)-1,3-thiazol-2-yl]-2-(1,3-dimethyl-2,4-dioxo-1,2,3,4-tetrahydro-5-quinazolinyl)acetamide], for which the inhibition at 1 µM is 82.7%, the inhibition at 10 µM is 98.7% and the IC50 was greater than 100 nM.

On to `Cn1c(=O)c2c(CC(=O)Nc3nc(-c4ccc(OC(F)(F)F)c(F)c4)cs3)cccc2n(C)c1=O` [Example 41], for which the inhibition at 1 µM is 74.4%, the inhibition at 10 µM worked out at 99.7% and the 50% inhibitory concentration (IC50) was less than 50 nM.

As to `Cn1c(=O)c2c(CC(=O)Nc3nc(-c4ccc(F)c(OC(F)(F)F)c4)cs3)cccc2n(C)c1=O` [Example 42], the inhibition at 1 µM came out at 98.3%, the inhibition at 10 µM is 99% and the IC50 was in the range of 50.1 to 100 nM.

Regarding `COc1ccc(-c2csc(NC(=O)Cc3cccc4c3c(=O)n(C)c(=O)n4C)n2)cc1F` [Example 43], the inhibition at 1 µM was 5.71% and the inhibition at 10 µM was 9.15%.

Regarding `Cn1c(=O)c2c(CC(=O)Nc3nc(-c4ccc(OC(F)F)c(F)c4)cs3)cccc2n(C)c1=O` [Example 44, N1-[4-(4-Difluoromethoxyl-3-fluorophenyl)-1,3-thiazol-2-yl]-2-(1,3-dimethyl-2,4-dioxo-1,2,3,4-tetrahydro-5-quinazolinyl)acetamide], the inhibition at 1 µM is 46.2% and the inhibition at 10 µM came out at 99.2%.

Take `Cn1c(=O)c2c(CC(=O)Nc3nc(-c4ccc(Cl)cc4Cl)cs3)cccc2n(C)c1=O` [Example 45, N1-[4-(2,4-Dichlorophenyl)-1,3-thiazol-2yl]-2-(1,3-dimethyl-2,4-dioxo-1,2,3,4-tetrahydro-5-quinazolinyl)acetamide]: the inhibition at 1 µM is 82.1%, the inhibition at 10 µM amounted to 95.5% and the IC50 is greater than 100 nM.

With `Cn1c(=O)c2c(CC(=O)Nc3nc(-c4cc(Cl)ccc4Cl)cs3)cccc2n(C)c1=O` [Example 46, N1-[4-(2,5-Dichlorophenyl)-1,3-thiazol-2-yl]-2-(1,3-dimethyl-2,4-dioxo-1,2,3,4-tetrahydro-5-quinazolinyl)acetamide], the inhibition at 1 µM came out at 84.3%, the inhibition at 10 µM came to 87.9% and the IC50 was greater than 100 nM.

With `Cn1c(=O)c2c(CC(=O)Nc3nc(-c4ccc(Cl)c(Cl)c4)cs3)cccc2n(C)c1=O` [Example 47, N1-[4-(3,4-Dichlorophenyl)-1,3-thiazol-2yl]-2-(1,3-dimethyl-2,4-dioxo-1,2,3,4-tetrahydro-5-quinazolinyl)acetamide], the inhibition at 1 µM turned out to be 98.4%, the inhibition at 10 µM was determined as 99.2% and the IC50 was 50.1 to 100 nM.

Regarding `Cn1c(=O)c2c(CC(=O)Nc3nc(-c4cc(Cl)cc(Cl)c4)cs3)cccc2n(C)c1=O` [Example 48, N1-[4-(3,5-Dichlorophenyl)-1,3-thiazol-2-yl]-2-(1,3-dimethyl-2,4-dioxo-1,2,3,4-tetrahydro-5-quinazolinyl)acetamide], the inhibition at 1 µM came out at 96.3%, the inhibition at 10 µM was found to be 100% and the IC50 was 50.1 to 100 nM.

In the case of `Cn1c(=O)c2c(CC(=O)Nc3nc(-c4ccc(F)c(Cl)c4)cs3)cccc2n(C)c1=O` [Example 49, N1-[4-(3-Chloro-4-fluorophenyl)-1,3-thiazol-2-yl]-2-(1,3-dimethyl-2,4-dioxo-1,2,3,4-tetrahydro-5-quinazolinyl)acetamide], the inhibition at 1 µM worked out at 98.6%, the inhibition at 10 µM was 99% and the IC50 was 50.1 to 100 nM.
